In PubChem BioAssay (NCI):
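Protocol summary: plate cells (96-well), add compound at 5 concentrations, incubate 48 h, interpolate endpoints linearly. GI50 = concentration required for 50% inhibition of growth. At the TGI there is no net growth.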

Assays:
Experiment in all cases: NCI tumour cell line growth inhibition, 48 h
HOP-62 NSCLC = system: HOP-62 NSCLC
KM12 colon = system: KM12 colon
UACC-257 melanoma = system: UACC-257 melanoma
SK-MEL-2 melanoma = system: SK-MEL-2 melanoma
HCT-15 colon = system: HCT-15 colon
NCI-H23 lung = system: NCI-H23 lung
NCI-H226 lung = system: NCI-H226 lung
NCI-H460 lung = system: NCI-H460 lung
SF-268 CNS = system: SF-268 CNS
RXF 393 renal = system: RXF 393 renal

Compound	TGI (HOP-62 NSCLC) [µM]	TGI (KM12 colon) [µM]	TGI (UACC-257 melanoma) [µM]	TGI (SK-MEL-2 melanoma) [µM]	TGI (HCT-15 colon) [µM]	TGI (NCI-H23 lung) [µM]	TGI (NCI-H226 lung) [µM]	TGI (NCI-H460 lung) [µM]	TGI (SF-268 CNS) [µM]	TGI (RXF 393 renal) [µM]	GI50 (HOP-62 NSCLC) [µM]	GI50 (KM12 colon) [µM]	GI50 (UACC-257 melanoma) [µM]	GI50 (SK-MEL-2 melanoma) [µM]	GI50 (HCT-15 colon) [µM]	GI50 (NCI-H23 lung) [µM]	GI50 (NCI-H226 lung) [µM]	GI50 (NCI-H460 lung) [µM]	GI50 (SF-268 CNS) [µM]	GI50 (RXF 393 renal) [µM]
CCOC(=O)C1=C(Nc2ccc(Br)cc2)OCC1=O	> 100	> 100	> 100	> 100	> 100	> 100	> 100	> 100	> 100	> 100	–	–	–	–	–	–	–	–	–	–
CC1=NC(C)(COC(=O)C2(C)NC(C)(CO)CO2)COC1=O (centres undefined)	> 100	> 100	> 100	> 100	> 100	> 100	> 100	> 100	> 100	> 100	–	–	–	–	–	–	–	–	–	–
NC(N)=N/N=C(\N=Nc1ccccc1)c1ccc(Cl)cc1	18.8	7.76	6.37	13.1	14.9	30	18.8	16.5	15.7	9.33	5.1	2.15	2.42	3.79	3.02	14.4	3.66	3.13	3.53	2.69
NC(=O)c1cn(Cc2ccccc2)c(=O)n1Cc1ccccc1	> 100	> 100	> 100	> 100	> 100	> 100	> 100	> 100	> 100	> 100	–	–	–	–	–	–	–	–	–	–
Cc1sc2c(c1C)C(c1ccc(Cl)cc1)=N[C@@H](CC(=O)Nc1ccc(OCCOCCOCCOCCNc3cccc4c3C(=O)N(C3CCC(=O)NC3=O)C4=O)cc1)c1nnc(C)n1-2 (some centres undefined)	> 100	> 100	> 100	> 100	> 100	> 100	> 100	> 100	> 100	48.5	< 0.01	–	10.6	0.347	0.394	3.75	< 0.0212	2.13	0.254	0.803
CC1(C)N=C(N)N=C(N)N1c1cccc(OCCOc2cccc([N+](=O)[O-])c2)c1	> 100	> 100	> 100	> 100	> 100	> 100	> 100	> 100	> 100	> 100	31.2	1.37	4.32	15.2	> 100	1.73	48.6	0.541	0.535	35.2
CC12CCC(=O)N1c1cccnc1N2 (centres undefined)	> 100	> 100	> 100	> 100	> 100	> 100	> 100	> 100	> 100	> 100	–	–	–	–	–	–	–	–	–	–
COc1cc(/C=C/C(=O)Oc2ccccc2)ccc1C(=O)O/C=C/c1ccccc1	> 100	> 100	> 100	> 100	> 100	> 100	> 100	> 100	> 100	> 100	–	–	–	–	–	–	–	–	–	–
CC(=O)NC1CONC1=O (centres undefined)	> 100	> 100	> 100	> 100	> 100	> 100	> 100	> 100	> 100	> 100	–	–	–	–	–	–	–	–	–	–
CS(=O)(=O)CS(=O)(=O)OCCCl	151	1120	808	856	1090	494	785	448	990	611	–	–	–	–	–	–	–	–	–	–
Cc1ccc(C)c(N2C(=O)C(=O)C(c3nc4ccccc4o3)/C(=N/N)C2=O)c1 (centres undefined)	> 100	> 100	> 100	> 100	> 100	> 100	> 100	> 100	> 100	> 100	–	–	–	–	–	–	–	–	–	–
CCOC(=O)c1sc(NC(=O)COc2cccc(/C=C3\CCc4cc(OC)ccc4C3=O)c2)nc1C	55.2	5.12	> 100	> 100	> 100	> 100	> 100	13.8	12.3	8.44	18.2	2.3	9.79	5.38	2.93	15.8	28.3	3.19	3.21	2.83
Cc1noc2c1-c1ccccc1C(c1ccc(Cl)cc1)=N[C@H]2CC(N)=O	> 100	> 100	> 100	> 100	> 100	> 100	> 100	> 100	> 100	72.7	2.6	12.1	7.4	18.1	2.49	5.31	11.6	16.7	33.8	13
c1ccc2c(c1)c1ccccc1c1ccccc21	> 100	> 100	> 100	> 100	> 100	> 100	> 100	> 100	> 100	> 100	> 100	> 100	> 100	> 100	> 100	> 100	> 100	> 100	> 100	> 100
Oc1ccc(N=Nc2nccs2)c(O)c1	49.8	22.7	60.1	60.3	14.9	28.7	45.1	17.9	38.7	30.1	19.9	4.57	16.4	17.1	2.85	5.36	12.4	3.67	4.35	5.65
C1=NC(N(Cc2ccccc2)Cc2ccccc2)N(Cc2ccccc2)N1 (centres undefined)	32.7	31.1	33.5	31.8	34.4	54.9	33.5	37.2	47.4	30.4	–	–	–	–	–	–	–	–	–	–
Cn1c(=S)c2[nH]c(SCCCc3ccccc3)nc2n(C)c1=O	> 100	> 100	44.8	> 100	> 100	> 100	81.1	42.1	> 100	> 100	–	–	–	–	–	–	–	–	–	–
O=C1c2ccccc2C(=O)c2c(NCCN=Cc3ccccc3O)cccc21	52.3	8.37	13.4	11.3	16.7	> 100	> 38.2	6.91	14.9	6.94	6.61	2.93	4.84	4.42	4.03	12.4	7.97	2.18	2.7	2.18
O=C1c2ccc3c4ccccc4n(-c4ccccc4)c3c2C(=O)N1c1ccc(Cl)cc1	> 100	> 100	> 100	> 100	> 100	24.4	> 100	> 100	> 100	> 100	–	–	–	–	–	–	–	–	–	–
CC(=O)OCCOCNC(=S)N/N=C/c1ccc([N+](=O)[O-])s1	> 100	> 100	66.7	> 100	> 100	43.1	> 100	> 100	> 100	> 100	–	–	–	–	–	–	–	–	–	–
Cc1c(Cl)cccc1NC(=O)c1cccc([N+](=O)[O-])c1O	29.3	> 68.5	38.8	36.9	> 100	29.4	56.3	43.3	> 100	19.7	–	–	–	–	–	–	–	–	–	–
CCC[CH2][Sn]1([CH2]CCC)[O]CC(COc2c(Cl)cc(Cl)cc2Cl)[O]1 (centres undefined)	7.97	3.54	2.33	1.91	3.31	2.69	3.82	7.98	2.68	2.73	2.63	1.8	1.11	0.58	1.66	1.11	1.82	2.67	1.15	1.27
COc1cc(-c2nnc3n2NC=C(C(=O)O)S3)cc(OC)c1OC	> 100	> 100	> 100	> 100	> 67.5	> 100	> 100	> 100	> 100	> 100	–	–	–	–	–	–	–	–	–	–
Clc1nc(Cl)c2ncn(Cc3ccccc3Cn3cnc4c(Cl)nc(Cl)nc43)c2n1	19.3	5.37	25.4	27.8	3.32	10.7	7.16	11.7	12.3	3.29	9.11	2.23	9.62	8.96	1.47	5.26	2.76	3.07	3.05	1.36
